# According to PMC12606866, “Phenolic Compounds from Diarthron iranica: Enzymatic and in Silico Insights Into α-Amylase Inhibitory Activity” (Iranian Journal of Pharmaceutical Research : IJPR, 2025):
# Biological target: α-amylase
# Assay: DNS colorimetric alpha-amylase inhibition assay with starch
# Format: biochemical
row,SMILES,IC50 [mg/mL]
1,"COc1cc(O[C@@H]2O[C@H](CO[C@@H]3OC[C@@H](O)[C@H](O)[C@H]3O)[C@@H](O)[C@H](O)[C@H]2O)c2c(=O)cc(-c3ccc(O)cc3)oc2c1 [compound 1, 5-[(β)-D-xylopyranoside-(1'''→6'')-β-D-glucopyranoside] 7-Methoxy apigenin]",1.32
2,"COc1cc2cc(Oc3ccc4ccc(=O)oc4c3)c(=O)oc2cc1O [compound 2, 6'-Methoxy-7'-hydroxy-3'-O-7-bicoumarin]",0.71
3,"COc1cc([C@H]2OC[C@H]3[C@@H]2CO[C@@H]3c2ccc(O)c(OC)c2)ccc1O [compound 3, 4,4'-dihydroxy-3,3'-dimethoxy-7, 9’:7’, 9-diepoxylignan]",1.81
4,"O=c1cc(-c2ccc(O)c(O)c2)oc2cc(O)cc(O)c12 [luteolin, reference compound]",0.63
